Source: the supplement of paper PMC11061612

What was measured:
Experiment in all cases: combination Emax (second highest fraction inhibited in the dose matrix, 72 h); higher = more inhibition; extreme values may be limits of the assay
[1] = system: YH-13 (Glioblastoma)
Procedure, shortened: (§1)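 After 24 hours at 37°C and 5% CO2 in 1536-well plates, cells in DMEM/F12 or RPMI plus 10% FBS received two-drug dose matrices for 72 hours. Viability came from CellTiter-Glo 2.0 luminescence and was scaled as inhibition, anchored at 0 by vehicle wells and at 1 by blank wells. Combination Emax is taken as the second-highest inhibition in the matrix, and Bliss excess as the observed combination effect less EA + EB − EA·EB, with EA and EB the single-agent effects.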

[2] = system: EW-24 (Ewing's Sarcoma)
Procedure, shortened: as §1

[3] = system: KARPAS-299 (T-Cell Non-Hodgkin's Lymphoma)
Procedure, shortened: as §1

[4] = system: BT-549 (Breast Carcinoma)
Procedure, shortened: as §1

[5] = system: TGW (Neuroblastoma)
Procedure, shortened: as §1

[6] = system: TK10 (Kidney Carcinoma)
Procedure, shortened: as §1

[7] = system: NCI-H358 (Lung Adenocarcinoma)
Procedure, shortened: as §1

[8] = system: PANC-04-03 (Pancreatic Carcinoma)
Procedure, shortened: as §1

[9] = system: EoL-1-cell (Acute Myeloid Leukemia)
Procedure, shortened: as §1

[10] = system: ACHN (Kidney Carcinoma)
Procedure, shortened: as §1

[11] = system: NCI-H727 (Other Solid Carcinomas)
Procedure, shortened: as §1

[12] = system: LU-65 (Non-Small Cell Lung Carcinoma)
Procedure, shortened: as §1

[13] = system: MLMA (Other Blood Carcinomas)
Procedure, shortened: as §1

[14] = system: D-263MG (Glioblastoma)
Procedure, shortened: as §1

[15] = system: Ca9-22 (Head and Neck Carcinoma)
Procedure, shortened: as §1

[16] = system: UACC-62 (Melanoma)
Procedure, shortened: as §1

[17] = system: AMO-1 (Plasma Cell Myeloma)
Procedure, shortened: as §1

[18] = system: Caov-4 (Ovarian Carcinoma)
Procedure, shortened: as §1

[19] = system: Hs-766T (Pancreatic Carcinoma)
Procedure, shortened: as §1

[20] = system: NB69 (Neuroblastoma)
Procedure, shortened: as §1

N#Cc1cnc(Nc2cc(NC[C@H]3CNCCO3)c(C(F)(F)F)cn2)cn1 [SRA737] + Nc1ccn([C@@H]2O[C@H](CO)[C@@H](O)C2(F)F)c(=O)n1 [Gemcitabine] (first compound max 10 µM, 7x7, partner max 0.3 µM)
combination Emax [1]: 0.813
combination Emax [2]: 0.691
combination Emax [3]: 0.998
combination Emax [4]: 0.715
combination Emax [5]: 0.861
combination Emax [6]: 0.549
combination Emax [7]: 0.665
combination Emax [8]: 0.597
combination Emax [9]: 1
combination Emax [10]: 0.821
combination Emax [11]: 0.436
combination Emax [12]: 0.862
combination Emax [13]: 0.818
combination Emax [14]: 0.734
combination Emax [15]: 0.867
combination Emax [16]: 0.788
combination Emax [17]: 0.974
combination Emax [18]: 0.856
combination Emax [19]: 0.477
combination Emax [20]: 0.983

Cc1nc(Nc2ncc(C(=O)Nc3c(C)cccc3Cl)s2)cc(N2CCN(CCO)CC2)n1 [Dasatinib] + CC(=O)Nc1cccc(-n2c(=O)n(C3CC3)c(=O)c3c(Nc4ccc(I)cc4F)n(C)c(=O)c(C)c32)c1 [Trametinib] (first compound max 2 µM, 7x7, partner max 1 µM)
combination Emax [1]: 0.784
combination Emax [2]: 0.171
combination Emax [3]: 0.427
combination Emax [4]: 0.436
combination Emax [5]: 0.273
combination Emax [6]: 0.766
combination Emax [7]: 0.69
combination Emax [8]: 0.781
combination Emax [9]: 1
combination Emax [10]: 0.749
combination Emax [11]: 0.701
combination Emax [12]: 0.564
combination Emax [13]: 0.675
combination Emax [14]: 0.761
combination Emax [15]: 0.878
combination Emax [16]: 0.888
combination Emax [17]: 0.405
combination Emax [18]: 0.743
combination Emax [19]: 0.777
combination Emax [20]: 1

COc1cc2ncnc(Nc3ccc(F)c(Cl)c3)c2cc1OCCCN1CCOCC1 [Gefitinib] + CC(C)n1c(=O)n(C)c2cnc3cc(F)c(-c4ccc(OCCCN5CCCCC5)nc4)cc3c21 [AZD1390] (first compound max 10 µM, 7x7, partner max 0.3 µM)
combination Emax [1]: 0.145
combination Emax [2]: 0.189
combination Emax [3]: 0.14
combination Emax [4]: 0.0893
combination Emax [5]: 0.0238
combination Emax [6]: 0.445
combination Emax [7]: 0.536
combination Emax [8]: 0.347
combination Emax [9]: 0.571
combination Emax [10]: 0.551
combination Emax [11]: 0.157
combination Emax [12]: 0.268
combination Emax [13]: 0.33
combination Emax [14]: 0.132
combination Emax [15]: 0.625
combination Emax [16]: 0.248
combination Emax [17]: 0.323
combination Emax [18]: 0.171
combination Emax [19]: 0.181
combination Emax [20]: 0.369

C[C@@H](c1ccc2nccn2c1)n1nnc2ncc(-c3cnn(C)c3)nc21 [Savolitinib] + CC1(C)CCC(CN2CCN(c3ccc(C(=O)NS(=O)(=O)c4ccc(NCC5CCOCC5)c([N+](=O)[O-])c4)c(Oc4cnc5[nH]ccc5c4)c3)CC2)=C(c2ccc(Cl)cc2)C1 [Venetoclax] (first compound max 1 µM, 7x7, partner max 1 µM)
combination Emax [1]: 0.237
combination Emax [2]: 0.172
combination Emax [3]: 0.169
combination Emax [4]: 0.113
combination Emax [5]: 0.313
combination Emax [6]: 0.106
combination Emax [7]: 0.128
combination Emax [8]: 0.202
combination Emax [9]: 0.86
combination Emax [10]: 0.127
combination Emax [11]: 0.157
combination Emax [12]: 0.129
combination Emax [13]: 0.157
combination Emax [14]: 0.158
combination Emax [15]: 0.193
combination Emax [16]: 0.24
combination Emax [17]: 0.326
combination Emax [18]: 0.12
combination Emax [19]: 0.252
combination Emax [20]: 0.372

CN(CCO)CC[C@H](CSc1ccccc1)Nc1ccc(S(=O)(=O)NC(=O)c2ccc(N3CCC([C@@H](O)c4ccccc4-c4ccc(Cl)cc4)CC3)cc2)cc1S(=O)(=O)C(F)(F)F [AZD4320] + C[C@@H]1COCCN1C2=NC(=NC(=C2)C3(CC3)[S@](=N)(=O)C)C4=C5C=CNC5=NC=C4 [AZD6738] (first compound max 1 µM, 7x7, partner max 10 µM)
combination Emax [1]: 0.568
combination Emax [2]: 0.954
combination Emax [3]: 0.955
combination Emax [4]: 0.552
combination Emax [5]: 0.949
combination Emax [6]: 0.866
combination Emax [7]: 0.705
combination Emax [8]: 0.461
combination Emax [9]: 1
combination Emax [10]: 0.986
combination Emax [11]: 0.695
combination Emax [12]: 0.781
combination Emax [13]: 0.83
combination Emax [14]: 0.758
combination Emax [15]: 0.969
combination Emax [16]: 0.7
combination Emax [17]: 0.826
combination Emax [18]: 0.874
combination Emax [19]: 0.6
combination Emax [20]: 0.959

N#Cc1cnc(Nc2cc(NC[C@H]3CNCCO3)c(C(F)(F)F)cn2)cn1 [SRA737] + CCc1c2c(nc3ccc(O)cc13)-c1cc3c(c(=O)n1C2)COC(=O)[C@]3(O)CC [SN-38] (first compound max 10 µM, 7x7, partner max 0.3 µM)
combination Emax [1]: 0.832
combination Emax [2]: 0.768
combination Emax [3]: 0.999
combination Emax [4]: 0.75
combination Emax [5]: 0.714
combination Emax [6]: 0.682
combination Emax [7]: 0.8
combination Emax [8]: 0.57
combination Emax [9]: 0.994
combination Emax [10]: 0.893
combination Emax [11]: 0.609
combination Emax [12]: 0.906
combination Emax [13]: 0.77
combination Emax [14]: 0.823
combination Emax [15]: 0.954
combination Emax [16]: 0.664
combination Emax [17]: 0.967
combination Emax [18]: 0.9
combination Emax [19]: 0.631
combination Emax [20]: 0.991
